# Tested on: oxidation of the L-DOPA under the action of the bacterial extract (intracellular extract of Cutibacterium acnes CIP 53.117)
# Test: In vitro evaluation of the ability to inhibit the development of the colour (absorbance at 475 nm of L-DOPA + Cutibacterium acnes extract)
# Format: biochemical
# Details: for inhibiting the development of the colour (result in words): compared with Reference (absence of treatment); for optical density at 475 nm: 32° C.; for % inhib (percentage of inhibition of the formation of the coloured product): from initial rate of oxidation between 10 and 40 minutes vs reference composition
# Description: This method is based on the measurement of absorbance, over time, carried out directly on a composition formed of a mixture of intracellular extract of bacteria of Cutibacterium acnes type, of 3,4-dihydroxy-L-phenylalanine (L-DOPA) and of a test compound. The measurements are compared with those carried out for a mixture of an intracellular extract of bacteria of Cutibacterium acnes type and of 3,4-dihydroxy-L-phenylalanine (L-DOPA), in the absence of test compound (reference). The method is adapted from a method for the enzymatic assay of the tyrosinase activity (Behbahani et al., Microchemical Journal (1993), 47, 251), which is based on the absorbance properties at 475 nm of a coloured intermediate of the pathway for the biosynthesis of melanin starting from L-DOPA, namely dopachrome, a product of the oxidation of L-DOPA. An intracellular extract of bacteria of Cutibacterium acnes CIP 53.117 type stored at 4° C. in the lyophilized form is suspended in 1×PBS (supplied by Gibco BRL Life Technologies) at a concentration of 6 mg/ml. A solution of L-DOPA at a concentration of 0.5 mg/ml is prepared by bringing together L-DOPA (supplied by Sigma-Aldrich) and milliQ water, so as to have an L-DOPA concentration of 1 mg/ml, then diluting with 1×PBS (Dulbecco's Phosphate Buffered Saline, supplied by Gibco BRL Life Technologies). The mixture of 50 μl of these two solutions and of 100 μl of 1×PBS (Dulbecco's Phosphate Buffered Saline, supplied by Gibco BRL Life Technologies) results in a composition with a total volume of 200 μl containing L-DOPA (at a concentration of 125 μg/ml) and Cutibacterium acnes extract (at a concentration of 1.5 mg/ml). The test compositions and the reference composition are introduced separately into wells of a 96-well microplate suitable for reading in visible spectrophotometry, and placed at a temperature of 32° C. The formation of a coloured product is monitored over time by spectrophotometry. To do this, the absorbance, or optical density (O.D.), is measured at 475 nm from the time 0 to the time 2 hours by means of a Spectra Max M5e reader and the Spectra Max software (the time 0 corresponds to the introduction of the composition into the wells). The ability to inhibit the development of the colour of a given compound was assessed by comparing the absorbance measurements obtained for the test compositions with those obtained for the reference composition. More specifically, the inhibitory effect of the test compound was evaluated by comparing the initial rate of oxidation of the L-DOPA under the action of the bacterial extract at 475 nm for the test composition with that of the reference composition in order to obtain a corresponding percentage of inhibition. In practice, the initial rate (Vi) of the oxidation reaction is calculated from the linear part of the curve of the graph of the absorbance values. As this part lies between 10 and 40 minutes (see the graph in FIG. 1), the initial rate of the oxidation reaction is determined using the following relationship: [formula] The percentage of inhibition (% inhib) of a given compound with regard to the formation of the coloured product is subsequently obtained using the values of the initial rate of the oxidation reaction for the reference composition (Viref) and for the test composition ([…]) according to the following relationship: [formula] Within the meaning of the invention, a compound is regarded as having an inhibitory effect if the % inhib value is at least 15%.
# [1] = test compound 12.5 μM, duration 0 minutes
# [2] = test compound 12.5 μM, duration 10 minutes
# [3] = test compound 12.5 μM, duration 20 minutes
# [4] = test compound 12.5 μM, duration 30 minutes
# [5] = test compound 12.5 μM, duration 40 minutes
# [6] = test compound 12.5 μM, duration 60 minutes
# [7] = test compound 12.5 μM, duration 80 minutes
# [8] = test compound 12.5 μM, duration 100 minutes
# [9] = test compound 12.5 μM, duration 120 minutes
# [10] = test compound 25 μM, duration 0 minutes
# [11] = test compound 25 μM, duration 10 minutes
# [12] = test compound 25 μM, duration 20 minutes
# [13] = test compound 25 μM, duration 30 minutes
# [14] = test compound 25 μM, duration 40 minutes
# [15] = test compound 25 μM, duration 60 minutes
# [16] = test compound 25 μM, duration 80 minutes
# [17] = test compound 25 μM, duration 100 minutes
# [18] = test compound 25 μM, duration 120 minutes
# [19] = test compound 50 μM, duration 0 minutes
# [20] = test compound 50 μM, duration 10 minutes
# [21] = test compound 50 μM, duration 20 minutes
# [22] = test compound 50 μM, duration 30 minutes
# [23] = test compound 50 μM, duration 40 minutes
# [24] = test compound 50 μM, duration 60 minutes
# [25] = test compound 50 μM, duration 80 minutes
# [26] = test compound 50 μM, duration 100 minutes
# [27] = test compound 50 μM, duration 120 minutes
# [28] = test compound 100 μM, duration 0 minutes
# [29] = test compound 100 μM, duration 10 minutes
# [30] = test compound 100 μM, duration 20 minutes
# [31] = test compound 100 μM, duration 30 minutes
# [32] = test compound 100 μM, duration 40 minutes
# [33] = test compound 100 μM, duration 60 minutes
# [34] = test compound 100 μM, duration 80 minutes
# [35] = test compound 100 μM, duration 100 minutes
# [36] = test compound 100 μM, duration 120 minutes
structure (smiles),measurement,setting,value
"CN(CC(=O)O)C(=O)c1ccc[nH]c1=S [Compound 3, N-methyl-N-[(2-thioxo-1,2-dihydropyridin-3-yl)carbonyl]glycine]",inhibiting the development of the colour (result in words),,very effective
same,optical density at 475 nm,[1],0.0555
same,optical density at 475 nm,[2],0.0565
same,optical density at 475 nm,[3],0.0575
same,optical density at 475 nm,[4],0.0595
same,optical density at 475 nm,[5],0.0613
same,optical density at 475 nm,[6],0.0647
same,optical density at 475 nm,[7],0.0677
same,optical density at 475 nm,[8],0.0686
same,optical density at 475 nm,[9],0.0694
same,% inhib (percentage of inhibition of the formation of the coloured product),test compound 12.5 μM,39%
same,optical density at 475 nm,[10],0.0549
same,optical density at 475 nm,[11],0.0569
same,optical density at 475 nm,[12],0.0578
same,optical density at 475 nm,[13],0.0594
same,optical density at 475 nm,[14],0.0607
same,optical density at 475 nm,[15],0.0630
same,optical density at 475 nm,[16],0.0651
same,optical density at 475 nm,[17],0.0664
same,optical density at 475 nm,[18],0.0677
same,% inhib (percentage of inhibition of the formation of the coloured product),test compound 25 μM,51%
same,optical density at 475 nm,[19],0.0539
same,optical density at 475 nm,[20],0.0561
same,optical density at 475 nm,[21],0.0575
same,optical density at 475 nm,[22],0.0587
same,optical density at 475 nm,[23],0.0594
same,optical density at 475 nm,[24],0.0609
same,optical density at 475 nm,[25],0.0623
same,optical density at 475 nm,[26],0.0632
same,optical density at 475 nm,[27],0.0639
same,% inhib (percentage of inhibition of the formation of the coloured product),test compound 50 μM,58%
same,optical density at 475 nm,[28],0.0579
same,optical density at 475 nm,[29],0.0606
same,optical density at 475 nm,[30],0.0612
same,optical density at 475 nm,[31],0.0619
same,optical density at 475 nm,[32],0.0623
same,optical density at 475 nm,[33],0.0618
same,optical density at 475 nm,[34],0.0606
same,optical density at 475 nm,[35],0.0605
same,optical density at 475 nm,[36],0.0609
same,% inhib (percentage of inhibition of the formation of the coloured product),test compound 100 μM,78%
"CCOC(=O)CN(C)C(=O)c1ccc[nH]c1=S [Compound 4, Ethyl N-methyl-N-[(2-thioxo-1,2-dihydropyridin-3-yl)carbonyl]glycinate]",inhibiting the development of the colour (result in words),,very effective
same,optical density at 475 nm,[1],0.0550
same,optical density at 475 nm,[2],0.0571
same,optical density at 475 nm,[3],0.0585
same,optical density at 475 nm,[4],0.0604
same,optical density at 475 nm,[5],0.0627
same,optical density at 475 nm,[6],0.0659
same,optical density at 475 nm,[7],0.0679
same,optical density at 475 nm,[8],0.0696
same,optical density at 475 nm,[9],0.0709
same,% inhib (percentage of inhibition of the formation of the coloured product),test compound 12.5 μM,43%
same,optical density at 475 nm,[10],0.0573
same,optical density at 475 nm,[11],0.0586
same,optical density at 475 nm,[12],0.0595
same,optical density at 475 nm,[13],0.0609
same,optical density at 475 nm,[14],0.0623
same,optical density at 475 nm,[15],0.0650
same,optical density at 475 nm,[16],0.0682
same,optical density at 475 nm,[17],0.0695
same,optical density at 475 nm,[18],0.0703
same,% inhib (percentage of inhibition of the formation of the coloured product),test compound 25 μM,63%
same,optical density at 475 nm,[19],0.0558
same,optical density at 475 nm,[20],0.0574
same,optical density at 475 nm,[21],0.0580
same,optical density at 475 nm,[22],0.0591
same,optical density at 475 nm,[23],0.0599
same,optical density at 475 nm,[24],0.0617
same,optical density at 475 nm,[25],0.0634
same,optical density at 475 nm,[26],0.0654
same,optical density at 475 nm,[27],0.0666
same,% inhib (percentage of inhibition of the formation of the coloured product),test compound 50 μM,75%
same,optical density at 475 nm,[28],0.0578
same,optical density at 475 nm,[29],0.0579
same,optical density at 475 nm,[30],0.0593
same,optical density at 475 nm,[31],0.0601
same,optical density at 475 nm,[32],0.0608
same,optical density at 475 nm,[33],0.0618
same,optical density at 475 nm,[34],0.0623
same,optical density at 475 nm,[35],0.0627
same,optical density at 475 nm,[36],0.0631
same,% inhib (percentage of inhibition of the formation of the coloured product),test compound 100 μM,71%
"CCOC(=O)CNC(=O)c1ccc[nH]c1=S [Compound 5, Ethyl N-[(2-thioxo-1,2-dihydropyridin-3-yl)carbonyl]glycinate]",inhibiting the development of the colour (result in words),,very effective
same,optical density at 475 nm,[1],0.0531
same,optical density at 475 nm,[2],0.0535
same,optical density at 475 nm,[3],0.0550
same,optical density at 475 nm,[4],0.0559
same,optical density at 475 nm,[5],0.0572
same,optical density at 475 nm,[6],0.0601
same,optical density at 475 nm,[7],0.0636
same,optical density at 475 nm,[8],0.0659
same,optical density at 475 nm,[9],0.0674
same,% inhib (percentage of inhibition of the formation of the coloured product),test compound 12.5 μM,57%
same,optical density at 475 nm,[10],0.0559
same,optical density at 475 nm,[11],0.0567
same,optical density at 475 nm,[12],0.0572
same,optical density at 475 nm,[13],0.0575
same,optical density at 475 nm,[14],0.0578
same,optical density at 475 nm,[15],0.0588
same,optical density at 475 nm,[16],0.0602
same,optical density at 475 nm,[17],0.0627
same,optical density at 475 nm,[18],0.0651
same,% inhib (percentage of inhibition of the formation of the coloured product),test compound 25 μM,87%
same,optical density at 475 nm,[19],0.0539
same,optical density at 475 nm,[20],0.0554
same,optical density at 475 nm,[21],0.0557
same,optical density at 475 nm,[22],0.0560
same,optical density at 475 nm,[23],0.0565
same,optical density at 475 nm,[24],0.0573
same,optical density at 475 nm,[25],0.0579
same,optical density at 475 nm,[26],0.0585
same,optical density at 475 nm,[27],0.0593
same,% inhib (percentage of inhibition of the formation of the coloured product),test compound 50 μM,87%
same,optical density at 475 nm,[28],0.0532
same,optical density at 475 nm,[29],0.0534
same,optical density at 475 nm,[30],0.0548
same,optical density at 475 nm,[31],0.0550
same,optical density at 475 nm,[32],0.0550
same,optical density at 475 nm,[33],0.0555
same,optical density at 475 nm,[34],0.0557
same,optical density at 475 nm,[35],0.0561
same,optical density at 475 nm,[36],0.0563
same,% inhib (percentage of inhibition of the formation of the coloured product),test compound 100 μM,82%
"O=c1cc(CO)occ1O [Kojic acid, kojic acid, reference compound]",inhibiting the development of the colour (result in words),,does not make it possible to inhibit the development of the colour
same,inhibiting the development of the colour (result in words),listed as kojic acid,without effect
same,optical density at 475 nm,[28],0.0599
same,optical density at 475 nm,[29],0.0614
same,optical density at 475 nm,[30],0.0646
same,optical density at 475 nm,[31],0.0698
same,optical density at 475 nm,[32],0.0741
same,optical density at 475 nm,[33],0.0804
same,optical density at 475 nm,[34],0.0837
same,optical density at 475 nm,[35],0.0845
same,optical density at 475 nm,[36],0.0843
same,% inhib (percentage of inhibition of the formation of the coloured product),test compound 100 μM,−1%

# Reference: US20230372221A1, “USE OF THIOPYRIDINONE COMPOUNDS FOR PREVENTING THE FORMATION OF CUTANEOUS BLACKHEADS” (L'OREAL, priority 2020, published 2023)
